# In PubChem BioAssay AID2060485 (Molecular Pharmacology Branch, DTP, NCI, 2025):
# pIC50: −log10 of the molar value.
# Test system: A375 multi-cell spheroids with HUVEC/MSC, viability
# Experiment: Anticancer human tumor A375 cell line growth inhibition [GQUAD];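 also: spheroids exposed to compounds for seven days before readout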
# Conditions: for pIC50: curve of first compound; for viability, T/C: stronger effect = lower value
# Description: DNA G-quadruplex Stabilizer Agents in Combinations in Complex Spheroids
# A high-throughput screen of multi-cell type tumor spheroids was designed to identify active combinations of DNA G-quadruplex stabilizer agents and targeted small molecules. Complex spheroids include a stromal component modeled by human endothelial cells (HUVEC) and fibroblasts modeled by human mesenchymal stem cells (MSCs). The concentration ranges selected for each drug and investigational agent were based upon clinically achievable concentrations if the clinical Cmax of the agent was known.
# Compounds. The drugs and investigational agents: pidnarulex (CX-5461; NSC782164), APTO-253 (NSC789042), BRACO-19 (NSC847499), peposertib (NSC802822), ceralasertib (NSC780249), elimusertib (NSC800525), camonsertib (NSC841442), AZD-1390 (NSC803789), olaparib (NSC753686), talazoparib (NSC767125), ART-558 (NSC835418), sotorasib (NSC818433), MRTX-1133 (NSC836407), SN-38 (NSC673596), topotecan (NSC609699), etoposide (NSC141540), doxorubicin (NSC123127), gemcitabine (NSC613327), 5-fluorouracil (NSC19893), paclitaxel (NSC125973), vemurafenib (NSC761431), panobinostat (NSC761190), R-306465 (JNJ-16241199; NSC773264), adavosertib (NSC754352), TP-3654 (NSC805149), carboplatin (NSC241240), KSQ-4279 (NSC840948), and staurosporine (NSC755774) were obtained from the National Cancer Institute (NCI) Developmental Therapeutics Program Chemical Repository (34). The FDA-approved anticancer drug set is available from the NCI Developmental Therapeutics Program. […] The stock solutions were prepared in dimethyl sulfoxide (DMSO, Sigma-Aldrich, St. Louis, MO, cat. D2650) at 800-fold the tested concentration and stored at -70 degrees C prior to their use. All drugs and investigational agents were tested over a range starting from a high concentration at or near the clinical Cmax and decreasing in half-log increments. If the clinical Cmax for an agent had not been determined, the highest concentration tested was 10 microM.
# 2.3 Cell Culture. All cells were maintained in an incubator at 37 degrees C and 5% CO2 with 95% humidity. The PDC lines were cultured according to standard operating procedures established by the NCI PDMR. All PDCs were thawed and cultured in Matrigel-coated flasks prepared with a working solution of 1X Ham's F-12 nutrient mix, without supplementation (Invitrogen, cat. 11765054), 100 U/mL penicillin-streptomycin (Invitrogen, cat. 15140122), and 2.5% Matrigel (Corning Inc., cat. 354248) for the first three passages. The 857933-349-R-J2-PDC line was cultured in 6C/Colon 1B media, which includes advanced DMEM/F-12 (Thermo Fisher Scientific, cat. 12634028), 10 mM HEPES (Thermo Fisher Scientific, cat. 15630080), 1X GlutaMAX supplement (Thermo Fisher Scientific, cat. 35050061), 0.1 mg/mL primocin (InvivoGen, cat. ant-pm-2), 10% defined fetal bovine serum, heat inactivated (HyClone Laboratories Inc., cat. SH30070.03HI), 50% L-WRN conditioned media (ATCC, cat. CRL-3276), 1.25 mM N-Acetyl-L-cysteine (Sigma-Aldrich, cat. A9165), 10 mM nicotinamide (Sigma-Aldrich, cat. N0636), 1X B-27 supplement (Thermo Fisher Scientific, cat. 17504044), 1X N-2 supplement (Thermo Fisher Scientific, cat. 17502048), 10 microM Y-27632 dihydrochloride (Tocris Bioscience, cat. 1254), and 50 ng/mL human EGF recombinant protein (Thermo Fisher Scientific, cat. PHG0311). The 485176-168-R4-J1-PDC line was cultured in Panc media, which includes all 6C/Colon 1B media components plus 100 ng/mL human FGF-10 (Thermo Fisher Scientific, cat. 100-26), 500 nM SB-431542 (Selleckchem, cat. S1067), and gastrin (Tocris, cat. 3006).
# […]
# [1] = second compound 0.0316 µM, first compound 0.0316 µM
# [2] = second compound 0.0316 µM, first compound 0.316 µM
# [3] = second compound 0.1 µM, first compound 0.0316 µM
# [4] = second compound 0.1 µM, first compound 0.316 µM
# [5] = second compound 0.316 µM, first compound 0.0316 µM
# [6] = second compound 0.316 µM, first compound 0.316 µM
# [7] = second compound 1 µM, first compound 0.0316 µM
# [8] = second compound 1 µM, first compound 0.316 µM
# [9] = second compound 3.16 µM, first compound 0.0316 µM
# [10] = second compound 3.16 µM, first compound 0.316 µM
# [11] = second compound 10 µM, first compound 0.0316 µM
# [12] = second compound 10 µM, first compound 0.316 µM
compound,measurement,setting,value
Cn1ncnc1[C@H]1c2n[nH]c(=O)c3cc(F)cc(c23)N[C@@H]1c1ccc(F)cc1 + CN(C)c1ccc(Nc2c3ccc(NC(=O)CCN4CCCC4)cc3nc3cc(NC(=O)CCN4CCCC4)ccc23)cc1,pIC50,second compound 0.0316 µM,< 6.50
same,pIC50,second compound 0.1 µM,< 6.50
same,pIC50,second compound 0.316 µM,< 6.50
same,pIC50,second compound 1 µM,< 6.50
same,pIC50,second compound 3.16 µM,< 6.50
same,pIC50,second compound 10 µM,< 6.50
same,"viability, T/C","second compound 0.0316 µM, first compound 0.000999 µM",96.8%
same,"viability, T/C","second compound 0.0316 µM, first compound 0.00316 µM",104%
same,"viability, T/C","second compound 0.0316 µM, first compound 0.00999 µM",105%
same,"viability, T/C",[1],104%
same,"viability, T/C","second compound 0.0316 µM, first compound 0.0999 µM",105%
same,"viability, T/C",[2],97.1%
same,"viability, T/C","second compound 0.1 µM, first compound 0.000999 µM",102%
same,"viability, T/C","second compound 0.1 µM, first compound 0.00316 µM",102%
same,"viability, T/C","second compound 0.1 µM, first compound 0.00999 µM",97.2%
same,"viability, T/C",[3],101%
same,"viability, T/C","second compound 0.1 µM, first compound 0.0999 µM",103%
same,"viability, T/C",[4],84.7%
same,"viability, T/C","second compound 0.316 µM, first compound 0.000999 µM",115%
same,"viability, T/C","second compound 0.316 µM, first compound 0.00316 µM",93.6%
same,"viability, T/C","second compound 0.316 µM, first compound 0.00999 µM",101%
same,"viability, T/C",[5],110%
same,"viability, T/C","second compound 0.316 µM, first compound 0.0999 µM",107%
same,"viability, T/C",[6],98.8%
same,"viability, T/C","second compound 1 µM, first compound 0.000999 µM",111%
same,"viability, T/C","second compound 1 µM, first compound 0.00316 µM",105%
same,"viability, T/C","second compound 1 µM, first compound 0.00999 µM",101%
same,"viability, T/C",[7],110%
same,"viability, T/C","second compound 1 µM, first compound 0.0999 µM",116%
same,"viability, T/C",[8],110%
same,"viability, T/C","second compound 3.16 µM, first compound 0.000999 µM",107%
same,"viability, T/C","second compound 3.16 µM, first compound 0.00316 µM",98%
same,"viability, T/C","second compound 3.16 µM, first compound 0.00999 µM",99.8%
same,"viability, T/C",[9],105%
same,"viability, T/C","second compound 3.16 µM, first compound 0.0999 µM",106%
same,"viability, T/C",[10],106%
same,"viability, T/C","second compound 10 µM, first compound 0.000999 µM",98.3%
same,"viability, T/C","second compound 10 µM, first compound 0.00316 µM",97.5%
same,"viability, T/C","second compound 10 µM, first compound 0.00999 µM",97.1%
same,"viability, T/C",[11],107%
same,"viability, T/C","second compound 10 µM, first compound 0.0999 µM",104%
same,"viability, T/C",[12],97.9%
O=C(c1cc(Cc2n[nH]c(=O)c3ccccc23)ccc1F)N1CCN(C(=O)C2CC2)CC1 + CN(C)c1ccc(Nc2c3ccc(NC(=O)CCN4CCCC4)cc3nc3cc(NC(=O)CCN4CCCC4)ccc23)cc1,pIC50,second compound 0.0316 µM,< 5.00
same,pIC50,second compound 0.1 µM,< 5.00
same,pIC50,second compound 0.316 µM,< 5.00
same,pIC50,second compound 1 µM,< 5.00
same,pIC50,second compound 3.16 µM,< 5.00
same,pIC50,second compound 10 µM,< 5.00
same,"viability, T/C",[1],104%
same,"viability, T/C","second compound 0.0316 µM, first compound 0.1 µM",95.7%
same,"viability, T/C",[2],113%
same,"viability, T/C","second compound 0.0316 µM, first compound 1 µM",99.9%
same,"viability, T/C","second compound 0.0316 µM, first compound 3.16 µM",103%
same,"viability, T/C","second compound 0.0316 µM, first compound 10 µM",81.1%
same,"viability, T/C",[3],104%
same,"viability, T/C","second compound 0.1 µM, first compound 0.1 µM",102%
same,"viability, T/C",[4],103%
same,"viability, T/C","second compound 0.1 µM, first compound 1 µM",100%
same,"viability, T/C","second compound 0.1 µM, first compound 3.16 µM",102%
same,"viability, T/C","second compound 0.1 µM, first compound 10 µM",75.6%
same,"viability, T/C",[5],101%
same,"viability, T/C","second compound 0.316 µM, first compound 0.1 µM",101%
same,"viability, T/C",[6],102%
same,"viability, T/C","second compound 0.316 µM, first compound 1 µM",105%
same,"viability, T/C","second compound 0.316 µM, first compound 3.16 µM",97.6%
same,"viability, T/C","second compound 0.316 µM, first compound 10 µM",77.6%
same,"viability, T/C",[7],97.1%
same,"viability, T/C","second compound 1 µM, first compound 0.1 µM",102%
same,"viability, T/C",[8],93.8%
same,"viability, T/C","second compound 1 µM, first compound 1 µM",103%
same,"viability, T/C","second compound 1 µM, first compound 3.16 µM",102%
same,"viability, T/C","second compound 1 µM, first compound 10 µM",86.8%
same,"viability, T/C",[9],100%
same,"viability, T/C","second compound 3.16 µM, first compound 0.1 µM",97.5%
same,"viability, T/C",[10],100%
same,"viability, T/C","second compound 3.16 µM, first compound 1 µM",101%
same,"viability, T/C","second compound 3.16 µM, first compound 3.16 µM",103%
same,"viability, T/C","second compound 3.16 µM, first compound 10 µM",73.6%
same,"viability, T/C",[11],100%
same,"viability, T/C","second compound 10 µM, first compound 0.1 µM",96.4%
same,"viability, T/C",[12],98.8%
same,"viability, T/C","second compound 10 µM, first compound 1 µM",103%
same,"viability, T/C","second compound 10 µM, first compound 3.16 µM",92.9%
same,"viability, T/C","second compound 10 µM, first compound 10 µM",66.7%
